{
  "source": "patent US5281710A",
  "about": "“Dynemicin analogs: synthesis, methods of preparation and use” (The Scripps Research Institute, priority 1992, dated 1994)",
  "key": {"[1]": {"system": "P-388 mouse lymphoma cells", "assay": "Sulforhodamine B cytotoxicity, P-388", "assay_type": "cell-based", "conditions": "Mus musculus, P388; Table 7, P-388; read-out: Cytotoxicity (IC50)", "description": "(§1) In addition to the screening already discussed, several of the before-described compounds and chimeras were screened against several or all of a panel of ten to twenty-five cancerous cell lines as target cells and seven \"normal\" cell preparations. This screening utilized a sulforhodamine B cytotoxidity assay as discussed below.\n(§2) IC50 values; i.e., the concentration of Compound required to kill one-half of the treated cells, were then calculated."}, "[2]": {"assay": "Sulforhodamine B cytotoxicity, CHO", "assay_type": "cell-based, Chinese hamster", "conditions": "hamster, cho cells; Table 7, CHO; read-out: Cytotoxicity (IC50)", "description": "as §1, §2"}, "[3]": {"system": "SK-Mel-28 melanoma cells", "assay": "Sulforhodamine B cytotoxicity, SK-Mel-28", "assay_type": "cell-based", "conditions": "Homo sapiens", "description": "as §1, §2"}, "[4]": {"system": "H-322 lung carcinoma cells", "assay": "Sulforhodamine B cytotoxicity, H-322", "assay_type": "cell-based", "conditions": "NCI-H322; Table 7, H-322; read-out: Cytotoxicity (IC50)", "description": "as §1, §2"}, "[5]": {"system": "MCF-7 breast carcinoma cells", "assay": "Sulforhodamine B cytotoxicity, MCF-7", "assay_type": "cell-based", "conditions": "Table 7, MCF-7, read-out: Cytotoxicity (IC50)", "description": "as §1, §2"}, "[6]": {"system": "Ovcar-3 ovarian carcinoma cells", "assay": "Sulforhodamine B cytotoxicity, Ovcar-3", "assay_type": "cell-based", "conditions": "read-out: Cytotoxicity (IC50)", "description": "as §1, §2"}, "[7]": {"system": "HT-29 colon carcinoma cells", "assay": "Sulforhodamine B cytotoxicity, HT-29", "assay_type": "cell-based", "conditions": "Table 7, HT-29, read-out: Cytotoxicity (IC50)", "description": "as §1, §2"}, "[8]": {"system": "HL-60 promyeocytic leukemia cells", "assay": "Sulforhodamine B cytotoxicity, HL-60", "assay_type": "cell-based", "description": "as §1, §2"}, "[9]": {"system": "UCLA P-3 non-small cell lung carcinoma cells", "assay": "Sulforhodamine B cytotoxicity, UCLA-P3", "assay_type": "cell-based, human", "conditions": "read-out: Cytotoxicity (IC50)", "description": "as §1, §2\nUCLA P-3 Dr. D. Morton, University of California, […]"}, "[10]": {"assay": "in vitro", "assay_type": "cell-based, human", "conditions": "human, nhdf cells; Table 7, NHDF; read-out: Cytotoxicity (IC50)", "description": "as §1, §2\nNHDF Normal human dermal fibroblasts"}, "[11]": {"system": "Capan-1 pancreatic carcinoma cells", "assay": "Sulforhodamine B cytotoxicity, Capan-1", "assay_type": "cell-based", "description": "as §1, §2"}, "[12]": {"system": "cancer cell lines", "assay": "cells", "assay_type": "cell-based", "conditions": "Average data obtained from 5~10 cell lines; read-out: IC50 (average)", "description": "as §1\nSULFORHODAMINE B CYTOTOXICITY ASSAY\na. Stock drug solutions were prepared by dissolving drug in the appropriate solvent (determined during chemical characterization studies) and sterile filtering the drug-solvent solution through a sterile 0.2μ filter unit. An aliquot was taken from each filtered drug solution and the O.D. was measured to determine the drug concentration.\nf. Incubate (37° C., 5-10 percent CO2 in humidified incubator) plates for a total of 72 hours. Check plates at 24 hour intervals microscopically for signs of cytotoxicity.\nas §2\nAll other cells or cell lines were obtained from the American Type Culture Collection (ATCC) (all except CHO cells are human or mouse cancer cell lines as described by the ATC).\nTables 1 and 2 herein below provide average IC50 data from five to all ten of the above cancer cells lines for fused ring enediyne compounds disclosed herein. Those tables provide a generic structure and a description of the R group of that generic structure for each compound. Compound numbers as noted hereinbefore are also provided. Table 3 contains data for two fused-ring enediyne compounds (Compounds 47 and 120) as well as data for six chimers. Table 4 contains cancer cell and noraml cell cytotoxicity data for one select fused ring enediyne, Compound 153 against a number of \"normal\" cell preparations and tumor cell lines. Table 5 contains cancer cell and normal cell cytotoxicity data for another fused ring enediyne, Compound 250 against a similar panel of cells."}, "[13]": {"assay": "Lethal dose / toxicity in mice", "assay_type": "in vivo, mouse"}, "[14]": {"system": "MCF-7(ADR) breast carcinoma cells", "assay": "Sulforhodamine B cytotoxicity, MCF-7/ADR", "assay_type": "cell-based", "conditions": "Homo sapiens, NCI/ADR-RES, Adriamycin resistant", "description": "as §1, §2"}, "[15]": {"system": "φX174 Form I DNA", "assay": "φX174 supercoiled DNA cleavage, agarose gel", "assay_type": "biochemical", "conditions": "for DNA cleavage: 37° C.", "description": "The ethereal solution of Compound 40 produced by the LiAlH4 reduction of Compound 21 (39 mg, 0.10 mmol) was evaporated in vacuo to dryness and the residue dissolved in THF (4 mL) to give a 25 mM solution of Compound 40, assuming complete conversion of Compound 21. […]\nThus, a vial containing a 50 micromolar per base pair solution […] of the same buffer solution and 2.0 microliters of a 5.0 millimolar ethanol solution of Compound 40.\n[…] A 2.0 microliter portion of glycerol loading buffer solution containing bromothymol blue indicator was added to each vial. A 10 microliter aliquot was then drawn from each. Gel electrophoresis analysis of the aliquots was performed using a 1.0 percent agarose gel with ethidium bromide run at 115 volts for 1 hour. DNA cleavage was indicated by the formation of nicked relaxed circular DNA (form II) or linearized DNA (form III), which was detected by visual inspection of the gel under 310 nanometer ultraviolet light using ethidium bromide."}, "[16]": {"system": "P-388 leukemia cells in Balb/c mice", "assay": "In vivo P-388 leukemia in Balb/c mice", "set-up": "species or system mouse", "conditions": "single dose", "description": "In an in vivo study whose results are shown in FIG. 8, Balb/c mice were injected intra-peritoneally with 10^6 P-388 leukemia cells per mouse (the cells were suspended in 100 μl RPMI medium) on day zero. Therapy was started on day 1 by injecting each group of four animals with the indicated dose of Compound 45, which was administered only once in this assay. The course of therapy was followed by tumor-induced weight change in the animals and by recording death incidents (arrows). […] At the dose of 25 mg/kg Compound 45, the increase in life span over the control group was 175 percent (therapeutic group/control group)."}, "[17]": {"system": "tumor cells and \"normal\" cells", "assay": "Relative activity against tumor cells and normal cells", "assay_type": "cell-based", "source_text": "In contrast, 100 percent of normal human mammary epithelial cells (HMEC) were viable at the same concentration."}, "[18]": {"system": "MOLT-4 (Leukemia) cell line", "assay": "cells", "assay_type": "cell-based", "conditions": "Table 7, Molt-4; read-out: Cytotoxicity (IC50)", "description": "as §1, §2"}, "[19]": {"system": "SK-Mel-28, M-14, M-21, Capan-1, Ovcar-3, Ovcar-4, UCLA-P-3, U-87, U-251 and Molt-4 cell lines", "assay_type": "cell-based", "conditions": "ten tumor cell lines", "description": "In other studies, IC50 values were determined for the anti-tumor agents dynemicin A, calicheamicin γ1^I, taxol, vinblastine/vincristine, doxorubicin, actinomycin D and bleomycin sulfate against the SK-Mel-28, M-14, M-21, Capan-1, Ovcar-3, Ovcar-4, UCLA-P-3, U-87, U-251 and Molt-4 cell lines."}, "[20]": {"conditions": "SK-MEL-28, Table 7, SK-Mel-28, read-out: Cytotoxicity (IC50)"}},
  "note": "pIC50: −log10 of the molar value. Where two headings read alike, the source gives them in different places.",
  "data": [
    {"compound": "O=C(Oc1ccccc1)N1c2ccccc2C23OC24CCCC3C#C/C=C\\C#CC14", "note": "(stereo not drawn) [Compound 21]", "values": [
      {"measurement": "pIC50", "setting": "[1]", "result": 7.01},
      {"measurement": "CC50", "setting": "[2]", "result": 6.3, "unit": "µM"},
      {"measurement": "pIC50", "setting": "[3]; [20]", "result": 4.20},
      {"measurement": "pIC50", "setting": "[4]", "result": 5.51},
      {"measurement": "pIC50", "setting": "[5]; Homo sapiens, MCF7, 72 h", "result": 5.51},
      {"measurement": "pIC50", "setting": "[6]; Homo sapiens, OVCAR-3, Table 7, Ovcar-3", "result": 6.11},
      {"measurement": "pIC50", "setting": "[7]; Homo sapiens, HT-29, 72 h", "result": 6.41},
      {"measurement": "pIC50", "setting": "[8]; Homo sapiens, HL-60, Table 7, HL-60, read-out: Cytotoxicity (IC50)", "result": 7.01},
      {"measurement": "pIC50", "setting": "[9]; Homo sapiens, UCLA P-3, Table 7, UCLA-P3", "result": 6.11},
      {"measurement": "CC50", "setting": "[10]", "result": 6.3, "unit": "µM"},
      {"measurement": "pIC50", "setting": "[11]; Homo sapiens, CAPAN-1, Table 7, Capan-1, read-out: Cytotoxicity (IC50)", "result": 7.11},
      {"measurement": "pIC50", "setting": "[12]", "result": 5.30}
    ]},
    {"compound": "O=C(OCCS(=O)(=O)c1ccccc1)N1c2ccccc2C23OC24CCCC3C#C/C=C\\C#CC14", "note": "(stereo not drawn) [Compound 45]", "values": [
      {"measurement": "pIC50", "setting": "[3]; SK-MEL-28, SK-Mel-28, read-out: IC50", "result": 5.20},
      {"measurement": "toxicity relative to naturally occurring enediynes", "setting": "[13]", "result": "significantly less than naturally occurring enediynes"},
      {"measurement": "LD50", "setting": "[13]; mouse, in vivo", "result": "~50", "unit": "mg/kg"},
      {"measurement": "pIC50", "setting": "[14]", "result": 5.80},
      {"measurement": "pIC50", "setting": "[8]; Homo sapiens, HL-60, HL-60, read-out: IC50", "result": 5.41},
      {"measurement": "DNA cleavage", "setting": "[15]; pH 8.5, 24 or 48 hours", "result": "strong DNA cleavage activity"},
      {"measurement": "DNA cleavage potency", "setting": "[15]; pH 8.5, 1000 and 100 μM", "result": "comparable potencies"},
      {"measurement": "deaths / weight course", "setting": "[16]; 12 mg/kg", "result": "three of the four animals died"},
      {"measurement": "increase in life span over control group", "setting": "[16]; 25 mg/kg", "result": 175, "unit": "%"},
      {"measurement": "time to death", "setting": "[16]; 50 mg/kg, rapid weight loss", "result": "≤ 8", "unit": "days"},
      {"measurement": "pIC50", "setting": "[11]; Homo sapiens, CAPAN-1, Capan-1, read-out: IC50", "result": 5.80},
      {"measurement": "pIC50", "setting": "[12]", "result": 6.70}
    ]},
    {"compound": "CC(COC(=O)N1c2ccccc2C23OC24CCCC3C#CC=CC#CC14)S(=O)(=O)c1ccccc1", "note": "(stereo not drawn) [Compound 427]", "values": [
      {"measurement": "pIC50", "setting": "[1]", "result": 5.80},
      {"measurement": "CC50", "setting": "[2]", "result": "< 100", "unit": "µM"},
      {"measurement": "pIC50", "setting": "[3]; [20]", "result": 4.30},
      {"measurement": "pIC50", "setting": "[4]", "result": 4.89},
      {"measurement": "pIC50", "setting": "[5]; 4320 min", "result": 4.60},
      {"measurement": "pIC50", "setting": "[6]; Table 7, Ovcar-3", "result": 5.51},
      {"measurement": "pIC50", "setting": "[7]; 4320 min", "result": 6.11},
      {"measurement": "pIC50", "setting": "[8]; Table 7, HL-60, read-out: Cytotoxicity (IC50)", "result": 6.11},
      {"measurement": "pIC50", "setting": "[9]; Table 7, UCLA-P3", "result": 5.51},
      {"measurement": "DNA cleavage", "setting": "[15]; 5.0 mM, pH 8.5 and 9.0, 48 hours", "result": "greatly reduced in vitro DNA cleaving ability"},
      {"measurement": "selectivity between normal and cancer cells (qualitative)", "setting": "[17]", "result": "reduced cytotoxicity of Compound 427 against normal cell lines while maintaining considerable activity against cancer cell lines"},
      {"measurement": "pIC50", "setting": "[18]", "result": 9.00},
      {"measurement": "CC50", "setting": "[10]", "result": "< 100", "unit": "µM"},
      {"measurement": "pIC50", "setting": "[11]; Table 7, Capan-1, read-out: Cytotoxicity (IC50)", "result": 5.51}
    ]},
    {"compound": "bleomycin sulfate [reference compound]", "values": [
      {"measurement": "relative potency among agents across cell lines", "setting": "[19]", "result": "considerably less active against all the cell lines"}
    ]}
  ]
}
